The nature of series [1]: log P by HPLC on reversed-phase column (C18), EEC Directive 79/831 Annex V.A8. Type of series: physicochemical. The conditions noted are these: 40° C., 0.1% aqueous formic acid and acetonitrile, linear gradient 10% to 90% acetonitrile. As to the method:
In table 1, the log P values were determined in accordance with EEC Directive 79/831 Annex V.A8 by HPLC (High Performance Liquid Chromatography) on a reversed-phase column (C18), using the method described below:
Temperature: 40° C.; Mobile phases: 0.1% aqueous formic acid and acetonitrile; linear gradient from 10% acetonitrile to 90% acetonitrile.
Calibration was carried out using unbranched alkan-2-ones (comprising 3 to 16 carbon atoms) with known log P values (determination of the log P values by the retention times using linear interpolation between two successive alkanones). lambda-max-values were determined using UV-spectra from 200 nm to 400 nm and the peak values of the chromatographic signals.

Series [2] has as its system Septoria tritici. The series is described as follows: In vivo preventive test on Septoria tritici (wheat). To be noted: 500 ppm of active ingredient, evaluated 21 days after inoculation. The method, then:
Solvent: 49 parts by weight of N,N-dimethylacetamide Emulsifier: 1 part by weight of alkylaryl polyglycol ether To produce a suitable preparation of active compound, 1 part by weight of active compound or active compound combination is mixed with the stated amounts of solvent and emulsifier, and the concentrate is diluted with water to the desired concentration. To test for preventive activity, young plants are sprayed with the preparation of active compound or active compound combination at the stated rate of application. After the spray coating has dried on, the plants are sprayed with a spore suspension of Septoria tritici. […] The plants are placed in a greenhouse at a temperature of approximately 15° C. and a relative atmospheric humidity of approximately 80%.

The test system of series [3] is Alternaria solani. As to the kind of experiment: In vivo preventive test on Alternaria solani (tomato). To be noted: 500 ppm of active ingredient, evaluated 7 days after inoculation. The method, then: Solvent: 49 parts by weight of N,N-dimethylformamide Emulsifier: 1 part by weight of Alkylarylpolyglycolether To produce a suitable preparation of active compound, 1 part by weight of active compound is mixed with the stated amounts of solvent and emulsifier, and the concentrate is diluted with water to the desired concentration. To test for preventive activity, young plants are sprayed with the preparation of active compound at the stated rate of application. One day after this treatment, the plants are inoculated with an aqueous spore suspension of Alternaria solani. […] Then the plants are placed in an incubation cabinet at approximately 20° C. and a relative atmospheric humidity of 96%.

The test system of series [4] is Pyrenophora teres. As to the kind of experiment: In vivo preventive test on Pyrenophora teres (barley), Example F. The conditions noted are these: 500 ppm of active ingredient, evaluated 7-9 days after inoculation. The method, then: Solvent: 49 parts by weight of N,N-dimethylformamide Emulsifier: 1 part by weight of alkylaryl polyglycol ether To produce a suitable preparation of active compound, 1 part by weight of active compound is mixed with the stated amounts of solvent and emulsifier, and the concentrate is diluted with water to the desired concentration. To test for preventive activity, young plants are sprayed with the preparation of active compound at the stated rate of application. One day after this treatment, the plants are inoculated with an aqueous spore suspension of Pyrenophora teres. […] Then the plants are placed in a greenhouse at a temperature of approximately 20° C. and a relative atmospheric humidity of approximately 80%.

The test system of series [5] is Aflatoxins production by Aspergillus parasiticus. Type of series: cell-based.
For series [6], the system named is Leptosphaeria nodorum. As to the kind of experiment: In vivo preventive test on Leptosphaeria nodorum (wheat). To be noted: 500 ppm of active ingredient, evaluated 8 days after inoculation. As to the method:
Solvent: 49 parts by weight of N,N-dimethylacetamide Emulsifier: 1 part by weight of alkylaryl polyglycol ether To produce a suitable preparation of active compound, 1 part by weight of active compound or the compound combination is mixed with the stated amounts of solvent and emulsifier, and the concentrate is diluted with water to the desired concentration. To test for protective activity, young plants are sprayed with a preparation of active compound or active compound combination at the stated rate of application. After the spray coating has dried on, the plants are sprayed with a spore suspension of Leptosphaeria nodorum. […] The plants are placed in a greenhouse at a temperature of approximately 15° C. and a relative atmospheric humidity of approximately 80%.

The subject of series [7] is Aspergillus parasiticus. Type of series: cell-based. The conditions noted are these: 7 days at 20° C., OD620nm.
Series [8] has as its system Venturia inaequalis. As to the kind of experiment: In vivo preventive test on Venturia inaequalis (apple scab). The conditions noted are these: 100 ppm of active ingredient, evaluated 10 days after inoculation. As to the method: Solvent: 24.5 parts by weight of acetone • 24.5 parts by weight of N,N-dimethylacetamide Emulsifier: 1 part by weight of alkylaryl polyglycol ether To produce a suitable preparation of active compound, 1 part by weight of active compound is mixed with the stated amounts of solvent and emulsifier, and the concentrate is diluted with water to the desired concentration. To test for protective activity, young plants are sprayed with the preparation of active compound at the stated rate of application. […] The plants are then placed in a greenhouse at approximately 21° C. and a relative atmospheric humidity of approximately 90%.

What is called logP is the decadic logarithm of the partition coefficient of the neutral form, usually between octanol and water. Lower therefore signals lower lipophilicity.

Values joined by “and” are separate entries in the source; they are usually repeats but may differ in a detail not shown here. Equal entries are not always repeated.

Turning to `CN(C[Si](C)(C)c1ccccc1)C(=O)c1c(C(F)F)nn(C)c1F` [Example 4], the logP in series [1] is 3.23. Besides, the Efficacy in series [2] turned out to be 100%; in series [3], 100%; in series [4] it was 100%; in series [6] it was 93%. The “% Inhibition of Aflatoxin at 50 μM” value in series [5] came to 100%. In addition, the “% Inhibition of fungal growth at 50 μM” value in series [7] is on record as 100%.

Turning to `CCc1nn(C)c(F)c1C(=S)N(C[Si](C)(C)c1ccccc1)C1CC1` [Example 9], the logP in series [1] was determined as 4.41. For the same compound, the Efficacy in series [2] is 93%; in series [3], 100%; in series [4] it was 100%; in series [6], 100%.

Turning to `Cc1nn(C)c(F)c1C(=S)N(C[Si](C)(C)c1ccccc1)C1CC1` [Example 10], the logP in series [1] was found to be 3.99. Besides, the Efficacy in series [2], in series [3], in series [4] and in series [6] was 100% each time.

In the case of `Cn1nc(C(F)F)c(C(=O)NC[Si](C)(C)c2ccccc2Cl)c1F` [Example 15], the logP in series [1] amounted to 3.48. Moreover, the Efficacy in series [2] is given as 90%; in series [3] it was 95%; in series [4] it was 100%. Moreover, in series [5], the “% Inhibition of Aflatoxin at 50 μM” value worked out at 88%. For the same compound, the “% Inhibition of fungal growth at 50 μM” value in series [7] came out at 76%.

In series [1], `Cn1cc(C(=O)N(C[Si](C)(C)c2ccccc2Cl)C2CC2)c(C(F)F)n1` [Example 17] had a log partition coefficient (logP) of 3.73. Also, the Efficacy in series [2] was determined as 83%; in series [3], 94%; in series [4] it was 95%; in series [8] it was 98%; in series [6] it was 94%.

On to `CCc1nn(C)c(F)c1C(=O)N(C[Si](C)(C)c1ccccc1Cl)C1CC1` [Example 20], for which the logP in series [1] is 4.03. In addition, the Efficacy in series [2] came to 92%; in series [3], 100%; in series [4] it was 100%; in series [8], 90%; in series [6] it was 100%.

For `Cc1nc(C(F)F)c(C(=O)N(C[Si](C)(C)c2ccccc2Cl)C2CC2)s1` [Example 21], in series [1], the logP came out at 4.32. The Efficacy in series [2] was 100%; in series [3], 95%; in series [4], 100%; in series [6], 100%.

As for `CCc1nn(C)c(F)c1C(=O)N(C[Si](C)(C)c1cccc(Cl)c1)C1CC1` [Example 28], the logP in series [1] was found to be 4.08. Also, the Efficacy turned out to be 100% in series [2]; 100% in series [3]; 100% in series [4]; 88% in series [8]; 100% in series [6].

Compound `Cn1cc(C(=O)N(C[Si](C)(C)c2cccc(Cl)c2)C2CC2)c(C(F)F)n1` [Example 30] gave a logP in series [1] of 3.80. Also, the Efficacy is on record as 100% in series [2], 95% in series [3], 100% in series [4] and 100% in series [6].

Take `Cc1nc(C(F)F)c(C(=O)N(C[Si](C)(C)c2cccc(Cl)c2)C2CC2)s1` [Example 32]: the logP in series [1] amounted to 4.32. Besides, the results for the Efficacy in series [2], in series [4] and in series [6] were 100%, 95% and 100%, respectively.

`Cc1nn(C)c(F)c1C(=O)N(C[Si](C)(C)c1ccc(Cl)cc1Cl)C1CC1` [Example 39] showed a logP in series [1] of 4.30. In addition, the Efficacy is 100% in series [2]; 94% in series [3]; 100% in series [4]; 100% in series [8]; 94% in series [6].

In series [1], `Cc1cc(C(=O)N(C[Si](C)(C)c2ccc(Cl)cc2Cl)C2CC2)c(C)o1` [Example 40] showed a logP of 5.46. Further, the Efficacy in series [2] is on record as 100%; in series [4], 95%.

On to `Cc1nn(C)c(F)c1C(=O)N(C[Si](C)(C)c1cc(Cl)cc(Cl)c1)C1CC1` [Example 48], for which, in series [1], the log partition coefficient (logP) is recorded as 4.34. In addition, the Efficacy in series [3], in series [4] and in series [6] was 100% each time.

With `Cn1cc(C(=O)N(C[Si](C)(C)c2cc(Cl)cc(Cl)c2)C2CC2)c(C(F)F)n1` [Example 51], in series [1], the logP amounted to 4.41. Besides, the Efficacy in series [2] was 100%; in series [3] it was 95%; in series [4], 100%; in series [6], 80% and 95%.

In the case of `Cn1nc(C(F)F)c(C(=O)N(C[Si](C)(C)Cc2ccccc2Cl)C2CC2)c1F` [Example 61], in series [1], the logP amounted to 4.41. Further, the Efficacy in series [3] and in series [4] was 100% throughout. The “% Inhibition of Aflatoxin at 50 μM” value in series [5] turned out to be 100%. Also, the “% Inhibition of fungal growth at 50 μM” value in series [7] was found to be 100%.

As to `Cn1nc(C(F)F)c(C(=O)N(C[Si](C)(C)Cc2cccc(Cl)c2)C2CC2)c1Cl` [Example 65], the logP in series [1] worked out at 4.59. The values for the Efficacy in series [3] and in series [4] were 95% and 100%, respectively. The “% Inhibition of Aflatoxin at 50 μM” value in series [5] is 82%. In addition, the “% Inhibition of fungal growth at 50 μM” value in series [7] worked out at 72%.

For the compound `Cn1nc(C(F)F)c(C(=O)N(C[Si](C)(C)Cc2cccc(Cl)c2)C2CC2)c1F` [Example 66], the logP in series [1] is listed as 4.44. Besides, the Efficacy in series [3] and in series [4] was 100% in each case. Also, in series [5], the “% Inhibition of Aflatoxin at 50 μM” value was 100%. In series [7], the “% Inhibition of fungal growth at 50 μM” value is recorded as 100%.

For the compound `Cn1nc(C(F)F)c(C(=O)N(C[Si](C)(C)Cc2ccc(Cl)cc2Cl)C2CC2)c1Cl` [Example 69], the logP in series [1] is given as 5.19. In addition, the Efficacy in series [3] and in series [4] was 100% each time. In addition, the “% Inhibition of Aflatoxin at 50 μM” value in series [5] is given as 100%. For the same compound, the “% Inhibition of fungal growth at 50 μM” value in series [7] is recorded as 85%.

As to `Cn1nc(C(F)F)c(C(=O)N(C[Si](C)(C)Cc2ccc(Cl)cc2Cl)C2CC2)c1F` [Example 70], in series [1], the logP was determined as 5.03. For the same compound, the Efficacy in series [3] and in series [4] was 100% in each case. Also, in series [5], the “% Inhibition of Aflatoxin at 50 μM” value is given as 100%. Also, the “% Inhibition of fungal growth at 50 μM” value in series [7] was 100%.

In series [1], `Cn1nc(C(F)F)c(C(=O)N(C[Si](C)(C)c2ccc3ccccc3c2)C2CC2)c1F` [Example 74] came in with a logP of 4.36. Moreover, the Efficacy in series [3] and in series [4] was 100% throughout. The “% Inhibition of Aflatoxin at 50 μM” value in series [5] was determined as 100%. Moreover, the “% Inhibition of fungal growth at 50 μM” value in series [7] is listed as 100%.

For the compound `Cn1nc(C(F)F)c(C(=O)N(C[Si](C)(C)c2ccsc2)C2CC2)c1Cl` [Example 75], in series [1], the logP turned out to be 3.71. Moreover, the Efficacy in series [3] is 94%; in series [4], 100%. Further, the “% Inhibition of Aflatoxin at 50 μM” value in series [5] is listed as 100%. In addition, the “% Inhibition of fungal growth at 50 μM” value in series [7] came to 100%.

In turn, `Cn1nc(C(F)F)c(C(=O)N(C[Si](C)(C)c2ccsc2)C2CC2)c1F` [Example 76] had a logP in series [1] of 3.55. Also, the Efficacy in series [3] is 94%; in series [4], 100%. In addition, the “% Inhibition of Aflatoxin at 50 μM” value in series [5] is 100%. Further, in series [7], the “% Inhibition of fungal growth at 50 μM” value was found to be 100%.

The record behind these values is patent US9556205B2, “Fungicide N-[(trisubstitutedsilyl)methyl]-carboxamide derivatives” (BAYER INTELLECTUAL PROPERTY GMBH, priority 2010, dated 2017).
